{
  "source": "patent US20250361281A1",
  "about": "“AMYLIN RECEPTOR (hAMY3R) AGONISTS WITH IMPROVED CHEMICAL STABILITY” (GUBRA A/S, priority 2022, published 2025)",
  "key": {"[1]": {"assay": "Physical stability of peptide analogues (Thioflavin T fibrillation)", "format": "physicochemical", "settings": "ThT fluorescence, 40° C., shaking, four days; pH 4 or pH 7 buffer", "experimental": "General Protocols for Determination of Physical Stability of Peptide Analogues\nPeptides were dissolved in buffers (50 mM sodium acetate at pH 4 or 50 mM sodium phosphate at pH 7) and incubated for one hour. The samples were then divided into two replicates of 80 μl in a black 384 well plate (μ-clear, Greiner Bio-One) and mixed with Thioflavin T (ThT) to a final concentration of 4 μM. The plate was sealed and placed in a plate reader (CLARIOstar, BMG) where the temperature was set at 40° C. during the course of the experiment. The samples were further stressed by shaking the plate at 700 rpm (linear) for five minutes before every measurement. The fluorescence was measured every 10 min for four days by exciting the ThT at 450 nm and measuring the emission at 480 nm. For each peptide, the ThT signal over time was smoothened using Local Polynomial Regression fitting (LOESS) as implemented in the statistical programming environment R. For the smoothened data, the maximum ThT signal was normalized in percent between the maximum ThT signal for hAMY and the buffer background."}, "hAM1 receptor": {"target": "T1, hAM1 receptor (Homo sapiens, UniProt O60895+Q16602)", "T1 construct": "monoclonal sub-clone", "T1 sequence (Q16602 23-461)": "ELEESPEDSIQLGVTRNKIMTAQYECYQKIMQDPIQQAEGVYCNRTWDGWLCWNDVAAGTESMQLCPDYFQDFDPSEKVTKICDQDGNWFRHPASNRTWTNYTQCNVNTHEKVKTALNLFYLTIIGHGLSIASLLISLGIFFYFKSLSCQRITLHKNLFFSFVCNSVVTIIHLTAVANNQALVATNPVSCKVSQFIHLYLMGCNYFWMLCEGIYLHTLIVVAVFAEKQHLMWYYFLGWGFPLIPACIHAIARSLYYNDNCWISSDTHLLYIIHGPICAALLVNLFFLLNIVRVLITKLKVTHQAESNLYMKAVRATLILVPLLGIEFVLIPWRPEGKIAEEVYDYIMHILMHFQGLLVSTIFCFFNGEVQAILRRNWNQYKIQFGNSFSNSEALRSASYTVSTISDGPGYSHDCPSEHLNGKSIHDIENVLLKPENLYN", "T1 sequence (O60895 43-175 partner)": "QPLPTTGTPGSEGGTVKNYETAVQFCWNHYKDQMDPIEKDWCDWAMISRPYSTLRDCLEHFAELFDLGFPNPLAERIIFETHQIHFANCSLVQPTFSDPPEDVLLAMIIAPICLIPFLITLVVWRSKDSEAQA", "assay": "cAMP assay for in vitro receptor activation, hAM1-R", "format": "cell-based", "settings": "cells stably overexpressing hAM1 receptor, cAMP accumulation, 30 min stimulation; read-out: hAM1R EC50", "experimental": "General Protocols for cAMP Assays for Measuring In Vitro Receptor Activation hAMY3-R:\nCells stably overexpressing the hAM1 receptor were obtained from Ogeda (now Astellas Pharma), sub-cloned and a monoclonal cell-line with an appropriate assay-window was expanded, aliquoted and frozen. An aliquot was thawed and plated in DPBS with 0.05% casein and 0.5 mM IBMX as 8000 cells/well in a 384-well format."}, "[2]": {"assay": "Determination of dimer and HMWP formation (size exclusion chromatography)", "format": "physicochemical", "settings": "50 mM phosphate buffer pH 7, 40° C., up to 28 days", "experimental": "General Protocol for Determination of Dimer and HMWP Formation\nPeptides were dissolved in 50 mM phosphate buffer (pH 7) and incubated at 40° C. for up to 28 days. The samples were then analysed using size exclusion chromatography analysis to quantify the amount of High Molecular Weight Products (HMWP), which is an overall term for covalently linked peptide dimers, trimers, and higher order multimers. Analyses were carried out on a Dionex Ultimate 3000 RS UHPLC Focused chromatography system (Thermo Scientific) equipped with a Acquity Protein BEH SEC 1.7 μm 4.6×300 mm 125 Å column (Waters part no 186006506). The solvent system consisted of two mobile phases that are assumed to break all non-covalent interactions between peptides leaving only monomeric peptide and covalent HMWP to be analysed. • Mobile phase A (all v/v %): 95% H2O, 5% MeCN (Acetonitrile), 0.1% TFA (Trifluoroacetic acid) • Mobile phase B (all v/v %): 95% MeCN, 5% H2O, 0.1% TFA\nThe typically load was 1 μl of 1.0 mg/ml, and the detection signal at 215 nm should optimally be between 0.1 and 1.5 abs units. Isocratic elution was done with 60% mobile phase B and a flow of 0.3 ml/min in 20 minutes. Chromatograms were integrated as HMWP (all peaks in front of the main peak) The amount of the various species was reported as area relative to total area in percentage."}, "[3]": {"assay": "Determination of deamidation and isomerization (LC-MS)", "format": "physicochemical", "settings": "50 mM phosphate buffer pH 7, 40° C., up to 28 days", "experimental": "General Protocol for Determination of Deamidation and Isomerization\nPeptides were dissolved in 50 mM phosphate buffer (pH 7) and incubated at 40° C. for up to 28 days. The samples were then analysed on a Exploris120 mass spectrometer coupled to a Vanquish Tandem UPLC (both Thermo Fisher) equipped with an Acquity BEH C18 column (1.7 um, 2.1×50 mm, 130A, Waters). Peptides were eluted using a linear gradient starting at 5% over 7.5 min to 70% buffer B at a flow rate of 0.4 mL/min (buffer B=100% acetonitrile with 0.1% formic acid; buffer A=100% water with 0.1% formic acid). Data were acquired in data-dependent acquisition mode at a MS1 resolution of 60.000, and a MS2 resolution of 30.000 in positive mode (Top4). Peptides were fragmented with a normalized collision energy of 25%. Deamidation and isomerization were quantified using area under the curve integration."}},
  "note": "Starred links: 1 amine or outer side, 2 acyl side, 3 side chain; linkers in the order of their positions; H or OH if unused. Positions of bridges follow the written chain, without caps; N, C: chain ends. Non-standard residues stand in square brackets, D forms with d. Residues, ends and D or L forms follow the SMILES beside them. *: point of attachment. C20 diacid = O=C(O)CCCCCCCCCCCCCCCCCCC(=O)*; γGlu = O=C(O)[C@H](CCC(=O)[*:2])N[*:1]; Hyp = O=C(O)[C@@H]1C[C@@H](O)CN1; CH2 = C([*:1])[*:2]",
  "data": [
    {"smiles": "CC[C@H](C)[C@H](NC(=O)[C@H](CCC(N)=O)NC(=O)[C@H](CCC(=O)O)NC(=O)[C@H](C)NC(=O)[C@H](CC(C)C)NC(=O)[C@H](CCCNC(=N)N)NC(=O)[C@H](C)NC(=O)[C@@H](NC(=O)[C@@H](NC(=O)[C@@H]1CSCSC[C@H](NC(=O)[C@H](CCCCN)NC(=O)CC[C@H](NC(=O)CCCCCCCCCCCCCCCCCCC(=O)O)C(=O)O)C(=O)N[C@@H](CC(C)C)C(=O)N[C@@H]([C@@H](C)O)C(=O)N[C@@H](C)C(=O)N[C@@H]([C@@H](C)O)C(=O)N1)[C@@H](C)O)C(C)C)C(=O)N[C@@H](C)C(=O)N[C@@H](CCC(N)=O)C(=O)N[C@@H](Cc1ccccc1)C(=O)N[C@H](C(=O)N[C@@H](CC(=O)O)C(=O)N[C@@H](CCCCN)C(=O)N[C@@H](CC(=O)O)C(=O)N[C@@H](CCCCN)C(=O)N[C@@H](CCC(=O)O)C(=O)N[C@@H](CC(N)=O)C(=O)N[C@H](C(=O)N[C@@H](C)C(=O)N1CCC[C@H]1C(=O)N1CCC[C@H]1C(=O)N[C@H](C(=O)N[C@@H](C)C(=O)N[C@H](C(=O)NCC(=O)N[C@@H](CO)C(=O)N[C@@H](C)C(=O)NCC(=O)N1C[C@H](O)C[C@H]1C(N)=O)C(C)C)[C@@H](C)O)C(C)C)[C@@H](C)O", "note": "[SEQ ID NO: 4] ({C20 diacid-γGlu}-KCLTATCTVARLAEQIAQFTDKDKENVAPPTAVGSAG[Hyp]-NH2; linker 2-7 via CH2)", "values": [
      {"measurement": "Fibril formation", "setting": "[1]", "result": "No"},
      {"measurement": "EC50", "setting": "hAM1 receptor", "result": "> 5", "unit": "µM"},
      {"measurement": "Dimerization and HMWP formation", "setting": "[2]", "result": 2, "unit": "%"},
      {"measurement": "Deamidation", "setting": "[3]", "result": "< 5", "unit": "%"},
      {"measurement": "Isomerization", "setting": "[3]", "result": 1.2, "unit": "%"},
      {"measurement": "Deamidation", "setting": "[3]; listed as 4", "result": "<5", "unit": "%"}
    ]}
  ]
}
